# Test results reported in patent US20210267959A1, “METHODS OF TREATING RENAL DISEASE” (The Regents of the University of California, priority 2018, published 2021).
# What was measured:
# [1] = tested on: rat model of chronic kidney disease (CKD) via 5/6 nephrectomy; assay: JZL184 in rat 5/6 nephrectomy model of chronic kidney disease; assay type: in vivo, male Sprague-Dawley rats; conditions: CKD rats, 4 weeks
# Description: (§1) We used a well-known experimental tool, JZL184, which inhibits the enzyme responsible for breakdown of 2-AG, monoacylglycerol lipase (MGL), to determine the effect of increased tissue 2-AG levels on markers of renal function in animal models of chronic kidney disease (CKD). JZL184 was administered intraperitoneally in a well-established rat and mouse model of chronic kidney disease (CKD) (FIG. 8).
# (§2) Therefore, we induced CKD in animals via 5/6 nephrectomy (surgical removal of one entire kidney in addition to 2/3 of the contralateral kidney which results in significant renal mass reduction and development of kidney failure over 6-10 weeks) in two separate studies (one set in rats and one set in mice).
# In the rats, male Sprague-Dawley rats underwent 5/6 nephrectomy versus sham surgery and after two weeks were randomized to 4 groups: sham surgery, CKD treated with vehicle, CKD treated with 4 mg/kg JZL184 and CKD treated with 8 mg/kg JZL184 (n=6-8). During and at the end of the study, non-invasive blood pressure measurements were performed using tail-cuff plethysmography. Before sacrifice, a 24-hour urine sample was collected and evaluated for urine protein and creatinine to assess for degree of proteinuria (degree of proteinuria is a marker of glomerular and interstitial kidney damage in advanced CKD). After sacrifice, serum was obtained to assess for renal function. […] This was associated reduced systolic blood pressure and decreased rate of urine protein excretion.
# [2] = tested on: mouse model of chronic kidney disease (CKD) via 5/6 nephrectomy; assay: JZL184 in mouse 5/6 nephrectomy model of chronic kidney disease; assay type: in vivo, Male C57BL/6J mice; conditions: CKD mice, JZL184 4 mg/kg, 4 weeks; FIG. 12
# Description: as §1, §2
# We performed a similar experiment in mice. Male C57BL/6J mice underwent sham surgery versus 5/6 nephrectomy to induce CKD and two weeks after surgery were randomized to vehicle versus JZL184 therapy (4 mg/kg). Treated animals received JZL184 (4 mg/kg) for an additional 4 weeks (FIG. 11).
# [3] = tested on: monoacylglycerol lipase (MGL); conditions: cited from earlier work
# [4] = JZL184 4 or 8 mg/kg intraperitoneal, FIG. 9
smiles,measurement,setting,value
"O=C(Oc1ccc([N+](=O)[O-])cc1)N1CCC(C(O)(c2ccc3c(c2)OCO3)c2ccc3c(c2)OCO3)CC1 [JZL184, 4-nitrophenyl-4-(dibenzo[d][1,3]dioxol-5-yl(hydroxy)methyl)piperidine-1-carboxylate]",cerebral cortex 2-AG concentration,[1]; [4],significant increase
same,renal 2-AG concentration,[1]; [4],significant increase
same,rate of urine protein excretion,"[1]; JZL184 4 or 8 mg/kg, 24-hour urine, FIG. 10",decreased
same,renal function (serum),"[1]; JZL184 4 or 8 mg/kg, FIG. 10",signal toward improved renal function
same,systolic blood pressure,"[1]; JZL184 4 or 8 mg/kg, tail-cuff plethysmography, FIG. 10",reduced
same,blood pressure,[2],significant improvement
same,serum BUN concentration,[2],reduced
same,urinary protein excretion,[2],decreased
same,overt symptoms of endocannabinoid activation in the central nervous system,"[3]; 4 mg/kg in mice and 4-8 mg/kg in rats, have been shown (prior work)",without causing overt symptoms
same,brain and kidney levels of 2-AG,[3]; has been shown (prior work),significantly increase
